Source: ChEMBL document CHEMBL1150370, “Pestaloficiols A-E, bioactive cyclopropane derivatives from the plant endophytic fungus Pestalotiopsis fici” (Bioorg Med Chem, 2008)
Where a name gives a salt, the structure may show the parent alone.

What was measured:
[1] = tested on: Human immunodeficiency virus 1; assay: Antiviral activity against HIV1 in human C8116 cells assessed as reduction of p24 protein level after 4 days by ELISA; assay type: functional, organism-based; conditions: Human immunodeficiency virus 1, C8116, 96 h
[2] = Cytotoxicity against human C8116 cells after 4 days by MTT assay; assay type: cell-based

EC50 [1] [µM]	Compound	CC50 at 96 h [2] [µM]
26	CC1(C)CC(=O)C2=C(O1)[C@@]13C[C@@H]1C(C)(C)O[C@H]3[C@@H](O)C2 [PESTALOFICIOL A]	> 200
26	CC1(C)CC(=O)C2=C(O1)[C@@]1(C[C@H]1C(C)(C)O)[C@@H](O)[C@@H](O)C2 [PESTALOFICIOL D]	> 200
0.00881	CC(C)(C)NC(=O)[C@@H]1CN(Cc2cccnc2)CCN1C[C@@H](O)C[C@@H](Cc1ccccc1)C(=O)N[C@H]1c2ccccc2C[C@H]1O [INDINAVIR SULFATE]	
26	CC1(C)CC(=O)C2=C(O1)[C@]1(C[C@@H]1C(C)(C)O)[C@@H](O)[C@@H](O)C2 [PESTALOFICIOL B]	> 200
